Results from US8846873B2, “Antibodies directed to GPNMB and uses thereof” (Celldex Therapeutics, Inc., priority 2004, dated 2014).
“Also recorded” adds a separate entry of the source.

Columns and labels:
[1] = system: HT144; experiment: Clonogenic assay with 1.15.1-AE; type: cell-based, human
Experimental: (§1) Melanoma cell lines were plated onto flat bottom 96-well tissue culture plates (Becton Dickinson, Franklin Lakes, N.J., USA). On day 2 or when cells reach ˜25% confluency, various concentrations of unconjugated and Auristatin E-conjugated 1.15.1 were added to cells. MAb 2.6.2-AE was also used as a conjugated isotype control in this study. On day 5, the cells were trypsinized, transferred to 6-well tissue culture plates and incubated at 37° C. Plates were examined daily. On days 8-10, all plates were Giemsa stained and colonies on the plates were counted.

[2] = system: MEWO; experiment: Clonogenic assay with 1.15.1-AE; type: cell-based, human
Experimental: as §1

[3] = system: UACC-257; experiment: Clonogenic assay with 1.15.1-AE; type: cell-based, human
Experimental: as §1

[4] = system: WM-266-4; experiment: Clonogenic assay with 1.15.1-AE; type: cell-based, human
Experimental: as §1

[5] = system: SK-MEL-2 melanoma xenografts; experiment: Human SK-MEL-2 melanoma xenograft in athymic mice; type: in vivo
Experimental: Test Animals: Five- to 6-week old athymic mice (CD-1 nu/nu females), used for human tumor xenografts, were obtained from Harlan Laboratories (Indianapolis, Ind.). Animals were housed in specific pathogen-free conditions, according to the guidelines of the Association for Assessment and Accreditation of Laboratory Animal Care International (AAALAC International). Test animals were provided pelleted food and water ad libitum and kept in a room with conditioned ventilation (HVAC), temperature (22°±2° C.), relative humidity (55%±15%), and photoperiod (12 hr). All studies were carried out with approved institutional animal care and use protocols.
Human Melanoma Xenograft Models. The tumor inhibitory activity of the CR011-MMAE immunoconjugate was measured in an anti-tumor xenograft model using athymic mice, according to published methods (see Geran et al., Cancer Chemother. Rep. 3:1-104 (1972)). […] When tumors became established (10-20 days), the animals were pair-matched into groups (n=6 mice/group), and treatment was administered by intravenous injection (tail vein).
The SK-MEL-2 human melanoma (ATCC #HTB-68) was derived from a metastatic site (skin of thigh) of a person with malignant melanoma, and the SK-MEL-5 human melanoma (ATCC #HTB-70) was derived from a metastatic site (axillary lymph node) of a person with malignant melanoma (see Fogh et al., J. Natl. Cancer Inst. 59: 221-226 (1977)). Both cell lines were obtained from the American Type Culture Collection.
The effects of treatment were monitored by repetitive tumor measurements across 2 diameters with Vernier calipers; tumor size (in mg) was calculated using a standard formula, (W^2×L)/2, assuming a specific gravity of 1.0. Tumor size and body weights were assessed twice weekly. Mice were examined daily, however, and moribund animals were humanely euthanized if clinical indications of excessive pain or distress were noted (i.e., prostration, hunched posture, paralysis/paresis, distended abdomen, ulcerations, abscesses, seizures, and/or hemorrhages). Animals with tumors exceeding 2,000 mg were removed from the study and euthanized humanely.
No apparent or statistically significant anti-tumor effects were observed. […] In preliminary studies, tumor regression was complete and was not followed by regrowth of the tumor despite lengthy observation periods (up to 200 days).

[6] = system: SK-Mel-2 cells; experiment: Cell cycle analysis (BrdU / propidium iodide flow cytometry); type: cell-based, human; conditions: for % G1 / % G2/M / % S-phase / % Sub-G1: SK-Mel-2, 24 hour
Experimental: (§2) Briefly, cells were pulsed at the indicated times with 30 μM of bromodeoxyuridine (BrdU, Sigma) for 30 min, harvested, fixed and permeabilized in methanol. Nascent DNA synthesis was detected by anti-bromodeoxyuridine-FITC (BD Biosciences, San Jose, Calif.) staining. Total DNA content was detected using propidium iodide (PI, Sigma). For apoptosis analysis, cells were treated as above and labeled with Annexin V-FITC followed by propidium iodide exclusion using the Annexin V-FITC Apoptosis Detection kit I (BD PharMingen, San Diego, Calif.) according to the manufacturer's protocols. Flow cytometry (as described in the previous Example) was used to assay both cell cycle and apoptosis studies.
(§3) DNA synthesis and cell cycle progression were determined by flow cytometry (Table 52).

[7] = system: TK-10 cells; experiment: as above; type: cell-based, human; conditions: for % G1 / % G2/M / % S-phase / % Sub-G1: TK-10, 24 hour
Experimental: as §2, §3

[8] = system: SK-Mel-2 cells; experiment: Apoptosis analysis (Annexin V-FITC / propidium iodide); type: cell-based, human; conditions: for % AnnV+/PI+ UR / % AnnV+/PI− LR / % AnnV−/PI+ UL: SK-Mel-2, 48 hour
Experimental: as §2
(§4) To investigate this possibility, analysis of apoptosis using Annexin-V surface binding and loss of propidium iodide (PI) exclusion was performed.

[9] = system: TK-10 cells; experiment: as above; type: cell-based, human; conditions: TK-10, 48 hour
Experimental: as §2, §4

[10] = system: SF-539; experiment: Clonogenic assay, CR011-vcMMAE in vitro growth inhibition; type: cell-based, human
Experimental: (§5) Cells were plated in 96-well plates and allowed to recover overnight. […] The cells were then transferred into 6-well plates and allowed to form colonies. Colonies were stained with Giemsa stain (Sigma) and counted. The surviving cell fractions were calculated based upon the ratio of the treated sample and the untreated control. The results were expressed as a percentage of control using GraphPad Prism Version 4 software.

[11] = system: SNB-78; experiment: as above; type: cell-based, human
Experimental: as §5

[12] = system: U-118-MG; experiment: as above; type: cell-based, human
Experimental: as §5

[13] = system: XF-498; experiment: as above; type: cell-based, human
Experimental: as §5

With “CR011-vcMMAE: anti-GPNMB antibody 1.15.1 coupled to monomethylauristatin E via protease-sensitive valine-citrulline linker” as the substance, how does the “Clonogenic Assay with 1.15.1-AE IC50” value [1] read?
The value was “Inconclusive”.

What about the “Clonogenic Assay with 1.15.1-AE IC50” value [2] of the same substance?
Its value is “Inconclusive”.

What about the “Clonogenic Assay with 1.15.1-AE IC50” value [3] of the same substance?
Its value is 0.825 µg/mL.

What about the IC50 [3] of the same substance?
Its IC50 is 5.5 nM.

What about the “Clonogenic Assay with 1.15.1-AE IC50” value [4] of the same substance?
Its value is 0.345 µg/mL.

And the IC50 [4]?
The IC50 was 2.3 nM.

What about the complete regressors ([5]; 2 mg/kg cumulative dose, all dosing intervals) of the same substance?
Its complete regressors is 13%.

What about the “proportions of complete regressions (animals)” value ([5]; 8 mg/kg cumulative dose, 5 groups of 6 animals) of the same substance?
Its value is 28/30.

What about the complete regressions ([5]; 8 mg/kg cumulative dose, all dosing intervals) of the same substance?
Its complete regressions is 93%.

And the tumor response ([5]; CR011-ONC-1, CR011-vcMMAE 5 mg/kg/treatment i.v. q4d x4, components at doses identical to those in the immunoconjugate)?
The tumor response was “Tumor growth inhibition and complete regression; also recorded: no discernible tumor was detected in all 6 of the test animals”.

What about the “abnormal treatment effects on gross examination” value ([5]; Study N-386) of the same substance?
Its value is “no abnormal treatment effects”.

What about the “time after treatment commenced to significant treatment effects” value ([5]; Study N-386, 20, 10, 5 or 2.5 mg/kg i.v. q4d x4, P≦0.014) of the same substance?
The value was 4 days.

What about the anti-tumor effect ([5]; Study N-386, i.v., CR011-vcMMAE 20, 10, 5 or 2.5 mg/kg q4d x4, vinblastine […] q4d x4) of the same substance?
The anti-tumor effect was “tumors rapidly diminished in size for the majority of the test animals”.

And the “effects of treatment on body weight or weight gain” value ([5]; Study N-386, twice weekly body weight)?
The value was “no observable or statistically significant effects”.

What about the complete regressions ([5]; cumulative dose of 32 mg/kg, all dosing intervals) of the same substance?
The complete regressions was 100%.

And the “schedule dependency of anti-tumor effects” value ([5]; dosing intervals 0, 1, 4, 8, 16 days)?
The value was “not schedule-dependent”.

And the “re-growth of tumors that regressed completely” value ([5]; observation period >200 days)?
Its value is “did not re-grow”.

And the “decreased percentage of cells in G1 and S-phase compared to untreated cells” value ([6]; 1000 ng/mL, 24 hrs)?
Its value is 10%.

And the “increased percentage of cells in G2/M compared to untreated cells” value ([6]; 1000 ng/mL, 24 hrs)?
The value was 18.6%.

What about the “increased percentage of cells in G2/M” value ([6]; 1000 ng/mL, 48 hr) of the same substance?
Its value is 24%.

What about the “reduced percentage of cells in G1 and S-phase” value ([6]; 1000 ng/mL, 48 hr) of the same substance?
Its value is 11%.

What about the “% G1” value ([6]; 100 ng/mL) of the same substance?
The value was 56.0%.

And the “% G2/M” value ([6]; 100 ng/mL)?
Its value is 12.4%.

And the “% S-phase” value ([6]; 100 ng/mL)?
The value was 26.9%.

And the “% Sub-G1” value ([6]; 100 ng/mL)?
The value was 0.2%.

And the “% G1” value ([6]; 1000 ng/mL)?
The value was 43.7%.

And the “% G2/M” value ([6]; 1000 ng/mL)?
The value was 28.5%.

And the “% S-phase” value ([6]; 1000 ng/mL)?
Its value is 20.0%.

And the “% Sub-G1” value ([6]; 1000 ng/mL)?
Its value is 1.1%.

And the “cycling of GPNMB-negative cells” value ([7]; 1000 ng/mL)?
Its value is “did not affect the cycling”.

What about the “% G1” value ([7]; 100 ng/mL) of the same substance?
The value was 51.1%.

What about the “% G2/M” value ([7]; 100 ng/mL) of the same substance?
The value was 4.5%.

And the “% S-phase” value ([7]; 100 ng/mL)?
The value was 35.1%.

And the “% Sub-G1” value ([7]; 100 ng/mL)?
The value was 0.7%.

And the “% G1” value ([7]; 1000 ng/mL)?
Its value is 52.6%.

And the “% G2/M” value ([7]; 1000 ng/mL)?
Its value is 3.9%.

And the “% S-phase” value ([7]; 1000 ng/mL)?
Its value is 34.2%.

What about the “% Sub-G1” value ([7]; 1000 ng/mL) of the same substance?
The value was 0.8%.

What about the “increase in mono-stained (Annexin-V+/PI−) cells” value ([8]; 1000 ng/mL, 48 hr) of the same substance?
Its value is 11%.

What about the “% AnnV+/PI+ UR” value ([8]; 100 ng/mL) of the same substance?
The value was 0.40%.

And the “% AnnV+/PI− LR” value ([8]; 100 ng/mL)?
Its value is 9.37%.

And the “% AnnV−/PI+ UL” value ([8]; 100 ng/mL)?
The value was 0.30%.

What about the “% AnnV+/PI+ UR” value ([8]; 1000 ng/mL) of the same substance?
Its value is 2.02%.

And the “% AnnV+/PI− LR” value ([8]; 1000 ng/mL)?
Its value is 13.83%.

And the “% AnnV−/PI+ UL” value ([8]; 1000 ng/mL)?
The value was 2.08%.

And the “% AnnV+/PI+ UR” value ([9]; 100 ng/mL)?
Its value is 0.57%.

What about the “% AnnV+/PI− LR” value ([9]; 100 ng/mL) of the same substance?
The value was 1.00%.

And the “% AnnV−/PI+ UL” value ([9]; 100 ng/mL)?
The value was 0.71%.

And the “% AnnV+/PI+ UR” value ([9]; 1000 ng/mL)?
The value was 0.83%.

What about the “% AnnV+/PI− LR” value ([9]; 1000 ng/mL) of the same substance?
The value was 0.56%.

What about the “% AnnV−/PI+ UL” value ([9]; 1000 ng/mL) of the same substance?
Its value is 0.86%.

What about the IC50 [10] of the same substance?
Its IC50 is about 1.05 µg/mL.

And the IC50 [11]?
The IC50 was about 0.45 µg/mL.

And the IC50 [12]?
Its IC50 is about 1.25 µg/mL.

And the IC50 [13]?
The IC50 was “approximately 215 ng/mL”.
